Reference: paper PMC6917776, “Discovery of a chemical probe for PRDM9” (Nature Communications, 2019)
Where “and” joins values, the source holds several entries; their conditions need not be identical. Identical values can stand only once.

Test system: H3K4me3 at known PRDM9 binding loci and control TSS loci
Experiment: ChIP-qPCR of H3K4me3 in PRDM9-transfected HEK293T cells
Assay type: cell-based, human
Settings: for 2^-dCq / dCq (IP-Input) / 2^-dCq (H3K4me3 IP relative to H3 IP) / Cq / 2^-dCq (H3K4me3 ChIP relative to H3 ChIP) / 2^-dCq (H3K4me3 ChIP-qPCR, IP relative to H3) / <Cq>: Antibody H3K4me3; for 2^-dCq / dCq (IP-Input) / Cq / <Cq>: Figure 7 Replicate 2; for 2^-dCq (H3K4me3 IP relative to H3 IP): ChIP-qPCR Replicate 1; for Cq: ChIP-qPCR single well; for 2^-dCq (H3K4me3 ChIP relative to H3 ChIP): Replicate 1; for 2^-dCq (H3K4me3 ChIP-qPCR, IP relative to H3) / H3K4me3 ChIP-qPCR 2^-dCq (IP-Input): Replicate 2; for H3K4me3 ChIP-qPCR 2^-dCq (IP-Input): H3K4me3 antibody relative to H3; for <Cq>: mean of two wells
Experimental: ChIP-qPCR assays were then conducted on known PRDM9 binding loci[26]. Ectopic expression of PRDM9^WT increased trimethylation of H3K4 (H3K4me3) at previously described PRDM9-specific intragenic and intergenic regions[26] (Fig. 7; Supplementary Fig. 12). […] The observed increases in H3K4me3 levels at intragenic and intergenic regions are therefore due directly to PRDM9 PR domain-dependent methylation activity, rather than through recruitment of other H3K4 methyltransferases or other indirect mechanisms.
ChIP qPCR analyses of H3K4me3 methylation levels of known PRDM9-bound loci and control loci. […] Concentrations used (µM) are indicated below each plot. (a–d) represent reported loci of PRDM9 methylation; (e, f) are transcriptional start sites (TSSs) which are not known loci of PRDM9 methylation. Data are normalized to total H3 and are presented as the mean ± upper and lower limits from two replicates. Representative plots of two independent experiments are shown in this figure. The coordinates and the genomic features associated with the assayed loci are indicated above each plot. Left Tailed Student's t-tests were performed by comparing DMSO (0 µM) treated cells to compound treated cells that have been transfected with the same plasmids. *p-value < 0.05 and **p-value < 0.01. Note that here we show a representative of two independent experiments (mean ± s.d of technical replicates) for our ChIP-qPCR experiments. Data obtained using this technique are inherently noisy due to stochastic differences in gene activity/histone positioning. Data are thus typically presented as representative rather than averaged. Source data are provided as a Source Data file.
HEK293T cells were transfected with 37.5 μg empty pcDNA3.1(+) vector (Invitrogen), or the same vector expressing either wild-type PRDM9 (PRDM9^WT) or a catalytically dead PRDM9 mutant (PRDM9^Mut) and 75 μL of Lipofectamine 2000 (Invitrogen) in 6 mL of Opti-MEM (GIBCO) for 48 h. […] ChIP assays were then performed as previously described. Briefly, cells were fixed in 1% formaldehyde and the fixation reaction was quenched in a final concentration of 0.1 M glycine. Cell pellets were first lysed in LB1 (50 mM HEPES-KOH pH 7.5, 140 mM NaCl, 1 mM EDTA, 10% Glycerol, 0.5% Igepal, 0.25% TritonX), washed once in LB2 Buffer (10 mM Tris-HCl pH 8, 200 mM NaCl, 1 mM EDTA, 0.5 mM EGTA) and finally sonicated in LB3 buffer (10 mM Tris-HCl pH 8, 100 mM NaCl, 1 mM EDTA, 0.5 mM EGTA, 0.1% Sodium deoxycholate, 0.5% N-laurosylsarcosine) using a bioruptor (Diagenode). Thereafter, 50 μg of chromatin was subjected to ChIP using the following antibodies purchased from Abcam: α-H3K4me3 (1:200, ab8580, lot:GR3207339-1) and α-H3 (1:250, ab1791, lot:GR300978-4). After extensive washing in RIPA wash buffer (50 mM HEPES-KOH pH 7.6, 100 mM LiCl, 1 mM EDTA, 1% Igepal, 0.7% Sodium Deoxycholate), DNA was eluted from beads. The eluted DNA was treated with RNase A and Proteinase K and purified using the QIAGEN PCR purification kit. qPCR was then carried out targeting the indicated loci (Supplementary Table 3). Upper and lower limits were defined by |2^−(dCq±s) − 2^−(∆Cq)|, where s = √((Standard deviation of Input Cq)^2 + (Standard deviation of Target Cq)^2). […]
formation. ChIP qPCR analyses of H3K4me3 methylation levels at known PRDM9-bound and control loci. Cells transfected with empty vector (negative control) or vectors overexpressing either wild-type PRDM9 (PRDM9 WT) or catalytically dead PRDM9 (PRDM9 MUT) were […]
Panels a-d represent reported loci of […]
(1 picture or pasted object on this page, not shown here)
PRDM9 methylation; e-f are TSSs which are not known sites of PRDM9 methylation. Data are normalized to total H3 and are presented as the mean ± upper and lower limits from two […]

[1] = Figure 7 E chr12:6643945-6644023 TSS (GAPDH), Plasmid Empty Vector, Drug Conc. 5
[2] = Figure 7 E chr12:6643945-6644023 TSS (GAPDH), Plasmid Empty Vector, Drug Conc. 10
[3] = Figure 7 E chr12:6643945-6644023 TSS (GAPDH), Plasmid PRDM9WT, Drug Conc. 5
[4] = Figure 7 E chr12:6643945-6644023 TSS (GAPDH), Plasmid PRDM9WT, Drug Conc. 10
[5] = Figure 7 F chr19:8510167-8510261 TSS (HNRNPM), Plasmid Empty Vector, Drug Conc. 5
[6] = Figure 7 F chr19:8510167-8510261 TSS (HNRNPM), Plasmid Empty Vector, Drug Conc. 10
[7] = Figure 7 F chr19:8510167-8510261 TSS (HNRNPM), Plasmid PRDM9WT, Drug Conc. 5
[8] = Figure 7 F chr19:8510167-8510261 TSS (HNRNPM), Plasmid PRDM9WT, Drug Conc. 10

COc1cc(OC)cc(-c2noc(N3CCN(C)C4(CCN(c5ccccc5)CC4)C3)n2)c1 [MRK-740-NC]
2^-dCq (Plasmid PRDM9WT, Drug Conc. 5): 34.845
dCq (IP-Input) (Plasmid PRDM9WT, Drug Conc. 5): -5.123
2^-dCq (Plasmid PRDM9WT, Drug Conc. 10): 50.1539
dCq (IP-Input) (Plasmid PRDM9WT, Drug Conc. 10): -5.648
2^-dCq (H3K4me3 IP relative to H3 IP) [1]: 96.9166
2^-dCq (H3K4me3 IP relative to H3 IP) [2]: 40.6216
2^-dCq (H3K4me3 IP relative to H3 IP) [3]: 33.0164
2^-dCq (H3K4me3 IP relative to H3 IP) [4]: 25.1288
2^-dCq (H3K4me3 IP relative to H3 IP) [5]: 88.9762
2^-dCq (H3K4me3 IP relative to H3 IP) [6]: 43.9056
2^-dCq (H3K4me3 IP relative to H3 IP) [7]: 32.8222
2^-dCq (H3K4me3 IP relative to H3 IP) [8]: 26.0973
Cq (Plasmid PRDM9WT, Drug Conc. 5): 21.4925 and 21.6408
Cq (Plasmid PRDM9WT, Drug Conc. 10): 21.2248 and 20.9811
2^-dCq (H3K4me3 ChIP relative to H3 ChIP) (Figure 7 A, chr2:128811847-128811944 (Intergenic), Plasmid Empty Vector, Drug Conc. 5): 0.5813
2^-dCq (H3K4me3 ChIP relative to H3 ChIP) (Figure 7 A, chr2:128811847-128811944 (Intergenic), Plasmid Empty Vector, Drug Conc. 10): 0.3956
2^-dCq (H3K4me3 ChIP relative to H3 ChIP) (Figure 7 A, chr2:128811847-128811944 (Intergenic), Plasmid PRDM9WT, Drug Conc. 5): 2.494
2^-dCq (H3K4me3 ChIP relative to H3 ChIP) (Figure 7 A, chr2:128811847-128811944 (Intergenic), Plasmid PRDM9WT, Drug Conc. 10): 2.2717
2^-dCq (H3K4me3 ChIP relative to H3 ChIP) (Figure 7 B, chr8:49932778-49932856 (Intergenic), Plasmid Empty Vector, Drug Conc. 5): 0.3925
2^-dCq (H3K4me3 ChIP relative to H3 ChIP) (Figure 7 B, chr8:49932778-49932856 (Intergenic), Plasmid Empty Vector, Drug Conc. 10): 0.1726
2^-dCq (H3K4me3 ChIP relative to H3 ChIP) (Figure 7 B, chr8:49932778-49932856 (Intergenic), Plasmid PRDM9WT, Drug Conc. 5): 4.749
2^-dCq (H3K4me3 ChIP relative to H3 ChIP) (Figure 7 B, chr8:49932778-49932856 (Intergenic), Plasmid PRDM9WT, Drug Conc. 10): 4.289
2^-dCq (H3K4me3 ChIP relative to H3 ChIP) (Figure 7 C, chr2:40281930-40282015 Intragenic (SLC8A1-AS1), Plasmid Empty Vector, Drug Conc. 5): 0.3263
2^-dCq (H3K4me3 ChIP relative to H3 ChIP) (Figure 7 C, chr2:40281930-40282015 Intragenic (SLC8A1-AS1), Plasmid Empty Vector, Drug Conc. 10): 0.2399
2^-dCq (H3K4me3 ChIP relative to H3 ChIP) (Figure 7 C, chr2:40281930-40282015 Intragenic (SLC8A1-AS1), Plasmid PRDM9WT, Drug Conc. 5): 5.248
2^-dCq (H3K4me3 ChIP relative to H3 ChIP) (Figure 7 C, chr2:40281930-40282015 Intragenic (SLC8A1-AS1), Plasmid PRDM9WT, Drug Conc. 10): 4.126
H3K4me3 levels at PRDM9-dependent intragenic and intergenic loci (ChIP-qPCR, in words) (HEK293T transfected with wild-type PRDM9, 48 h, various concentrations): negligible impact
2^-dCq (H3K4me3 ChIP-qPCR, IP relative to H3) (Figure 7 D chr3:165514798-165514911 Intragenic (BCHE), Plasmid Empty Vector, Drug Conc. 5): 0.55
2^-dCq (H3K4me3 ChIP-qPCR, IP relative to H3) (Figure 7 D chr3:165514798-165514911 Intragenic (BCHE), Plasmid Empty Vector, Drug Conc. 10): 0.9804
2^-dCq (H3K4me3 ChIP-qPCR, IP relative to H3) (Figure 7 D chr3:165514798-165514911 Intragenic (BCHE), Plasmid PRDM9WT, Drug Conc. 5): 6.945
2^-dCq (H3K4me3 ChIP-qPCR, IP relative to H3) (Figure 7 D chr3:165514798-165514911 Intragenic (BCHE), Plasmid PRDM9WT, Drug Conc. 10): 8.326
2^-dCq (H3K4me3 ChIP-qPCR, IP relative to H3) [1]: 90.8317
2^-dCq (H3K4me3 ChIP-qPCR, IP relative to H3) [2]: 79.4548
2^-dCq (H3K4me3 ChIP-qPCR, IP relative to H3) [3]: 29.3928
2^-dCq (H3K4me3 ChIP-qPCR, IP relative to H3) [4]: 64.1533
2^-dCq (H3K4me3 ChIP-qPCR, IP relative to H3) [5]: 64.4199
2^-dCq (H3K4me3 ChIP-qPCR, IP relative to H3) [6]: 72.9088
2^-dCq (H3K4me3 ChIP-qPCR, IP relative to H3) [7]: 34.845
2^-dCq (H3K4me3 ChIP-qPCR, IP relative to H3) [8]: 50.1539
H3K4me3 ChIP-qPCR 2^-dCq (IP-Input) (chr2:40281930-40282015 Intragenic (SLC8A1-AS1), Figure 7 C, Empty Vector, Drug Conc. 5): 0.5453
H3K4me3 ChIP-qPCR 2^-dCq (IP-Input) (chr2:40281930-40282015 Intragenic (SLC8A1-AS1), Figure 7 C, Empty Vector, Drug Conc. 10): 0.744
H3K4me3 ChIP-qPCR 2^-dCq (IP-Input) (chr2:40281930-40282015 Intragenic (SLC8A1-AS1), Figure 7 C, PRDM9WT, Drug Conc. 5): 5.233
H3K4me3 ChIP-qPCR 2^-dCq (IP-Input) (chr2:40281930-40282015 Intragenic (SLC8A1-AS1), Figure 7 C, PRDM9WT, Drug Conc. 10): 7.127
H3K4me3 ChIP-qPCR 2^-dCq (IP-Input) (chr2:128811847-128811944 (Intergenic), Figure 7 A, Empty Vector, Drug Conc. 5): 1.312
H3K4me3 ChIP-qPCR 2^-dCq (IP-Input) (chr2:128811847-128811944 (Intergenic), Figure 7 A, Empty Vector, Drug Conc. 10): 1.714
H3K4me3 ChIP-qPCR 2^-dCq (IP-Input) (chr2:128811847-128811944 (Intergenic), Figure 7 A, PRDM9WT, Drug Conc. 5): 3.31
H3K4me3 ChIP-qPCR 2^-dCq (IP-Input) (chr2:128811847-128811944 (Intergenic), Figure 7 A, PRDM9WT, Drug Conc. 10): 4.0213
H3K4me3 ChIP-qPCR 2^-dCq (IP-Input) (chr8:49932778-49932856 (Intergenic), Figure 7 B, Empty Vector, Drug Conc. 5): 0.869
H3K4me3 ChIP-qPCR 2^-dCq (IP-Input) (chr8:49932778-49932856 (Intergenic), Figure 7 B, Empty Vector, Drug Conc. 10): 0.9683
H3K4me3 ChIP-qPCR 2^-dCq (IP-Input) (chr8:49932778-49932856 (Intergenic), Figure 7 B, PRDM9WT, Drug Conc. 5): 6.096
H3K4me3 ChIP-qPCR 2^-dCq (IP-Input) (chr8:49932778-49932856 (Intergenic), Figure 7 B, PRDM9WT, Drug Conc. 10): 6.298
<Cq> (Plasmid PRDM9WT, Drug Conc. 5): 21.5667
<Cq> (Plasmid PRDM9WT, Drug Conc. 10): 21.103
